Tests used:
[1] = test system: Mouse preadipocyte strain 3T3-L1; assay: Inhibition of differentiation as an indication of acetic acid uptake; type: cell-based; details: Mus musculus, 3T3-L1, 0.1 μM test substance, control (0.01% dimethylsulfoxide) = 100%, read-out: Rate of Uptake (%) of [2-14C] acetic acid
In short: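 Differentiation is indexed by 1 hr [2-14C]acetic acid incorporation, measured by scintillation counting and given as uptake relative to 0.01% DMSO control (100%). Mouse 3T3-L1 preadipocytes, pre-grown 10 days, received 0.1 μM test substance throughout a 4-day insulin/IBMX/dexamethasone induction, followed by 2 days' maintenance culture.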

[2] = test system: human colon cancer cells COL-2-JCK; assay: Inhibition of colony forming activity in human colon cancer cells; type: cell-based; details: Homo sapiens, 240 h; 1 μM test compound; 10 days; sum of colony areas vs control; read-out: Inhibition Rate (%) against the colony forming activity
Method: For the medium to culture the human colon cancer cells, D-MEM/F-12 medium containing inactivated bovine fetal serum at a concentration of 10% (GIBCO) was used. The human colon cancer cells COL-2-JCK (purchased from Institute for Experimental Animals) grown in mass formation in a plastic dish for the cell culture with an inner diameter of 100 mm were stripped off from the dish by using EDTA (ethylenediaminetetraacetic acid) and 0.05% trypsin solution. Then, a cell dilution solution was prepared at a concentration of 100 cells/mL solution which was diluted with the medium (D-MEM/F-12).
Three (3) mL of the cell solution were inoculated in each well of a 6-well plastic plate (300 cells/well). The test compound that was dissolved in DMSO solution so as to be a final concentration of 1 μM of the test compound and that of DMSO solution of 0.1% was added to each well. DMSO solution alone was added into the well for the control so as to be a final concentration of 0.1%.
The cells in each well were cultured for 10 days at 37° C. in the presence of 5% CO2. After the culturing was finalised, each well was washed once with Dulbecco-phosphate-buffer-saline solution (bivalent anion). Then, 1.5 ml of neutral buffered formalin solution containing 0.02% crystal violet was added to each well and the plate was kept stationary for 5 min for fixation and staining the cells. After fixation and staining, the cells were washed with water and were air-dried. Then the sum of the colony area (mm^2) of the stained cancer cells was calculated by using an image analyzer PCA-11 (SystemScience). From the calculated values, the inhibition rate (%) of the compound against the colony forming activity was obtained based on the following equation.
Inhibition Rate (%) against the colony forming activity=(1−A/B)×100
A: Sum of Colony Areas in the Group Treated with 1 μM of the Test Compound
B: Sum of Colony Areas in the Control Group

TNF-α production = assay: Inhibitory activity against cytokine (TNF-α) production in LPS-stimulated RAW264.7 cells; type: cell-based, mouse; details: Mus musculus, RAW264.7, 15 h, 1 μM test compound, LPS 10 ng/mL
Method: The mouse monocyte/macrophage cell line, RAW264.7 (ATCC TIB71) was purchased from Dainippon Pharmaceutical Co., Ltd. The RAW264.7 cells were cultured in a CO2 incubator (37° C., 95% of humidity, 5% of CO2) by using the Dulbecco's modified Eagle's medium (DMEM medium; GIBCO, Cat. No. 11995-040) containing bovine fetal serum (the final concentration: 10% (v/v), MOREGATE, lot No. 474030), penicillin G (the final concentration: 50 units/mL […], GIBCO) and streptomycin (the final concentration: 20 μg/mL, GIBCO).
Sixty (60) μL of the RAW264.7 cell suspension (83,000 cells/mL) were plated into each well of a 96-well microplate (5,000 cells/well). After the cells were cultured for 4 hr in a CO2 incubator, 40 μL of DMEM medium containing 25 ng/mL of LPS (Sigma-Aldrich Japan K. K.) were added into each well (final concentration of LPS: 10 ng/mL). The test compound dissolved in DMSO at a concentration of 1 mM was diluted with DMEM medium by 20 times. Then 2 μL/well of the diluted solution were added to wells containing the plated cells (final concentration of the test compound: 1 μM). As the control, 2 μL/well of DMSO diluted with DMEM medium by 20 times were added to wells containing the plated cells either with LPS (final concentration: 10 ng/mL) or without LPS. After these cells were cultured in a CO2 incubator for 15 hr, the supernatant of the medium was recovered. The amount of mTNF-α in the medium supernatant was determined with a mouse TNF-α ELISA kit Quantikine M (R&D System), according to the experiment protocol attached with the kit.
The inhibitory activity of the test compound against TNF-α production was calculated according to the following equation.
A: The amount of TNF-α in the presence of test compound
B: The amount of TNF-α in the control without LPS
C: The amount of TNF-α in the control with 10 ng/mL of LPS
Inhibitory Activity of the Test Compound against TNF-α Production (%)=100−(A−B)/(C−B)×100

human PPAR γ 2 [3] = target: T1, human PPAR γ 2 (Homo sapiens, UniProt P37231); assay: PPAR γ transcriptional activity, luciferase reporter, test compound alone; type: cell-based; details: concentration indicating Emax/2, MG63 cells transfected with pSG5-hPPARg and pGV-P2-PPRE, 24 hr
T1 construct: expressed in transfected cells; host or cells: human osteosarcoma MG63, transiently co-transfected with pSG5-hPPARg and the reporter pGV-P2-PPRE
T1 sequence (P37231 1-505): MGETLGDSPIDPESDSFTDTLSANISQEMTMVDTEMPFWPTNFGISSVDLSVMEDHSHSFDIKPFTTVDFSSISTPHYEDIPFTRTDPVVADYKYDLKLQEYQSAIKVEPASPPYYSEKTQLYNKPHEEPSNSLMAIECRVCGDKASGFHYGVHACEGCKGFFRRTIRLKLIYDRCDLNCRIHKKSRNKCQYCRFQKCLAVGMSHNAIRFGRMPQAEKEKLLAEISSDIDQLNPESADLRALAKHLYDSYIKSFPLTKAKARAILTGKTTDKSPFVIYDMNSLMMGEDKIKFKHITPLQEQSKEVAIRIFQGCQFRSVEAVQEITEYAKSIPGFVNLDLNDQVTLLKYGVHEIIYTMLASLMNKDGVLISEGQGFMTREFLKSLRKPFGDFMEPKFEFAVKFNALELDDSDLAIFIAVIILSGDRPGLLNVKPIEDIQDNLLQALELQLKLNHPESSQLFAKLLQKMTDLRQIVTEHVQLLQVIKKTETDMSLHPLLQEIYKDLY
Method: The primers of the polymerase chain reaction (hereinafter “PCR”) were designed according to the gene sequence of human PPAR γ 2 (GenBANK accession No. D83233). In order to insert the genes into the BamHI site of the plasmid pSG5 ([…] CLONING SYSTEMS), Bgl II sites were added upstream and downstream of the genes encoding human PPAR γ 2 protein. For this, 2 kinds of polynucleotides shown in the sequence numbers 1 and 2 in the sequence table described below (hereinafter “S1” and “AS1”, respectively) were used as PCR primers.
(§1) In order to determine transcriptional activity via PPAR γ, 2 kinds of polynucleotides represented in sequence numbers 3 and 4 in the sequence table described below (hereinafter “S2” and “AS2”, respectively) were used for construction of the reporter plasmid having PPAR responsive element. The DNA fragment inserted was designed based on the gene sequence in the promoter region of rat acylCo-A oxidase (J. D. Tugwood, EMBO J., 11 (2), pp433-439 (1992)). For insertion of the DNA fragment into the reporter plasmid pGV-P2 (TOYO INK MFG CO., LTD), a NheI site and an XhoI site were added to the S2 and AS2, respectively.
(§2) Using cDNA library (Clontech) derived from human adipose tissue as a template, DNA oligomers S1 and AS1 that were synthesized in the procedure 1 as primers and Ex-Taq™ (TAKARA BIO INC.) as a thermostable DNA polymerase-PCR was carried out. As a result of the PCR, the c.a. 1500 bps DNA fragments were amplified. Each cycle consisted of incubation at 94° C. for 1 min for denaturation of the template, then at 55° C. for 30 sec for annealing of DNA oligomers the PCR primer, and then at 72° C. for 30 sec for extension of the chain. The obtained DNA fragments with approximately 1500 base pairs were digested at the Bgl II sites and were inserted into BamHI sites of pSG5. Thus a human PPAR γ expression plasmid named pSG5-hPPAR g was obtained. The nucleotide sequence of the inserted DNA fragment was confirmed to be identical sequence to the human PPAR γ 2 reported by the dideoxy method.
(§3) Vector pGV-P2 digestion products was prepared by digestion using the restriction enzymes, NheI and XhoI, and purified by 1.0% agarose-gel electrophoresis. The DNA oligomers, S2 and AS2 obtained in Procedure 2, were mixed together and were incubated in a hot bath at 94° C. for 1 min. After the annealing was partially broken, they were further incubated at 25° C. for 1 hr. Thus double-stranded DNA with annealing of S2 and AS2 was formed. Then, the terminus of the double-stranded DNA with annealing of S2 and AS2 was phosphorylated with DNA polynucleotide kinase (TOYOBO CO., LTD). After that, it was ligated to the pGV-P2 digestion products which were prepared previously using the NheI site and XhoI site. Thus the reporter plasmid pGV-P2-PPRE was obtained.
(§4) Using the plasmid obtained by the procedures 3 and 4, transformation of Escherichia coli HB-101 strain was carried out by conventional methods. HB-101 strain having the plasmid was incubated in L-broth medium (containing 10 g of trypton (Difco), 5 g of yeast extract (Difco), 5 g of sodium chloride in 1 L of aqueous solution) containing 100 μg/ml of ampicillin at 37° C. for 17 hrs. Then, each plasmid was purified by the alkaline-SDS method and employed for the gene transfection to mammalian cells. After mixing the pSG5-hPPARg, PGV-P2-PPRE and LipofectAMINE reagent (GIBCO BRL), the human osteosarcoma MG63 was transiently transfected. Then the cells were recovered. The recovered cells were plated on a 96-well plate so as to be 30,000 cells/well and cultured in a CO2 incubator (NAPCO) at 37° C. for 24 hr under the condition of 5% CO2, 95%-RH.
Various concentrations of the test compound alone were added to culturing medium of the cells prepared in the Procedure 5. After 24 hr of culturing, LT2.0 (TOYO INK MFG CO., LTD), a luciferase substrate, was added to the medium free culture plate. […]

human PPAR γ 2 [4] = target: T1, human PPAR γ 2; assay: Inhibitory activity against PPAR γ transcription in the presence of agonist compound A, luciferase reporter; type: cell-based; details: in the presence of 10 nM compound A (agonist); MG63 cells transfected with pSG5-hPPARg and pGV-P2-PPRE; 24 hr
Source text: The primers of the polymerase chain reaction (hereinafter “PCR”) were designed according to the gene sequence of human PPAR γ 2 (GenBANK accession No. D83233). […] For this, 2 kinds of polynucleotides shown in the sequence numbers 1 and 2 in the sequence table described below (hereinafter “S1” and “AS1”, respectively) were used as PCR primers.
as §1
as §2, with “As a result of the PCR, the c.a. 1500 bps DNA fragments were amplified.” left out, “obtained.” for “obtained. The nucleotide sequence of the inserted DNA fragment was confirmed to be identical sequence to the human PPAR γ 2 reported by the dideoxy method.”
as §3, §4
Ten (10) nM of the following compound A (although compound A is described here as a representative compound, the compound is not limited to compound A, if the compound exerts a PPAR r agonistic activity) and various concentrations of the test compound were added to culturing medium of the cells prepared in the Procedure 5.

| EC50 (human PPAR γ 2 [3]) [nM] | IC50 (human PPAR γ 2 [4]) [nM] | SMILES | activity at 0.1 µM [1] [%] | inhibition at 1 µM [2] [%] | inhibition at 1 µM (TNF-α production) [%] |
| --- | --- | --- | --- | --- | --- |
|  |  | COc1ccc2nc(NC(=O)c3cc([N+](=O)[O-])ccc3Cl)sc2c1 [Example 67, N-(6-Methoxybenzothiazol-2-yl)-(2-chloro-5-nitrophenyl)carboxamide] | 70.2 | 31 | 23.2 |
| 360 | 790 | Cc1nc(NS(=O)(=O)c2ccc(NC(=O)c3cc([N+](=O)[O-])ccc3Cl)cc2)oc1C [Example 97, N-[4-(4,5-Dimethyloxazol-2-yl)aminosulfonyl]phenyl-(2-chloro-5-nitrophenyl)carboxamide] |  | 3 |  |

— patent publication US20030134859A1 (SANKYO COMPANY, LIMITED, priority 2000, published 2003)
